The text below walks through data of US11319305B2, “Pyrimidine sulfamide derivative and preparation method and medical application thereof” (SHIJIAZHUANG SAGACITY NEW DRUG DEVELOPMENT CO., LTD., priority 2017, dated 2022).

One series addresses T1, human ETA receptor (Homo sapiens, UniProt P25101).
T1 construct: endogenously expressed human ETA receptors in SK-N-MC cells; host or cells: SK-N-MC cells
T1 sequence (P25101 21-427): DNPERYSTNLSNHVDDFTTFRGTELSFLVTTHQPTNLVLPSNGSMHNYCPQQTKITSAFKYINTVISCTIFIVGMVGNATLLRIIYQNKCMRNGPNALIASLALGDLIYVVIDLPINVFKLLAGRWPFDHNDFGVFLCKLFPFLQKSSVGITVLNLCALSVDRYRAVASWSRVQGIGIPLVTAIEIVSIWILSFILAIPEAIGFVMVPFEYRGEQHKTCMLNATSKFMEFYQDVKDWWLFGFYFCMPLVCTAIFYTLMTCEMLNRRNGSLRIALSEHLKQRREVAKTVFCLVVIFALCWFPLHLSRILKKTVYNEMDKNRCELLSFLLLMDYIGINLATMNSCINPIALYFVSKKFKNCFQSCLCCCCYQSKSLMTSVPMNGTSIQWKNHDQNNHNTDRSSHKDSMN
Kind of series: In vitro antagonistic effect against human ETA receptor, Ca2+ signal in SK-N-MC cells. The format is cell-based. Particulars: for IC50: SK-N-MC cells, response to 1 nM endothelin-1; for ETA/ETB selectivity: ratio of ETB IC50 to ETA IC50. The method, then:
Experimental Embodiment 1: In Vitro Test of Antagonistic Effect Against Human ETA Receptor
Antagonistic activity of the compounds against endogenously expressed human ETA receptors in SK-N-MC cells was evaluated by measuring the effect of compounds on the changes in cytoplasmic Ca^2+ ion signal induced by human ETA receptor agonists using fluorescence detection methods. The functional activity of the ETA receptor antagonistic effect was tested in Eurofins-Cerep SA according to current standard procedures.
1. Cells were suspended in Dulbecco's modified Eagle medium solution (DMEM, Invitrogen) supplemented with 1% FCSd, then distributed in 384-well plate (100 μL/well) at a density of 5×10^4 cells/well;
2. Probenecid in Hank's balanced salt solution (HBSS, Invitrogen) supplemented with 20 mM 4-(2-hydroxyethyl)piperazine-1-ethanesulfonic acid (Hepes, Invitrogen) (pH 7.4) was mixed with fluorescent probe (Fluo4 NW, Invitrogen), the mixture was added to each wells, then balanced with cells at 37° C. for 60 minutes, and then balanced with cells at 22° C. for 15 minutes;
3. The test plate was placed in a microplate reader (CellLux, PerkinElmer), a DMSO solution or HBSS buffer with an appropriate concentration of the test compound and the positive control was added, and 1 nM endothelin-1 or HBSS buffer (base control) was added after 5 minutes, and then the change in fluorescence intensity proportional to the concentration of Ca^2+ ions of free […] was measured;
5. Standard positive control was BQ-123, several concentrations were tested in each experiments. The data was analyzed using Prism to generate a concentration-response curve, and IC50 values of the compounds were calculated.

The next series concerns the target T2, human ETB receptor (Homo sapiens, UniProt P24530).
T2 construct: host or cells: CHO cells
T2 sequence (P24530 27-442): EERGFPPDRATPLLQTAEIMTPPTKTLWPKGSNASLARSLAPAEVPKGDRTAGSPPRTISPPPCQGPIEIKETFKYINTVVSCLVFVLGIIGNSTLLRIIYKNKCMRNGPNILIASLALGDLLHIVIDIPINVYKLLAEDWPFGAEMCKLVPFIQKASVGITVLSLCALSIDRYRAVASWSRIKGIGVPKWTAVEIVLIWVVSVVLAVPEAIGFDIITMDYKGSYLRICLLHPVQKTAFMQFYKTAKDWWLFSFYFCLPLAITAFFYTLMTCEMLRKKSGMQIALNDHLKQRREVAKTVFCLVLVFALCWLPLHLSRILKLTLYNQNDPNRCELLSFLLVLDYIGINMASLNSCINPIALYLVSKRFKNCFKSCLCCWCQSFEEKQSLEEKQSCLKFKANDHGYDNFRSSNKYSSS
Briefly: In vitro antagonistic effect against human ETB receptor, Ca2+ signal in transfected CHO cells. In kind it is cell-based. The settings on record: response to 0.3 nM endothelin-1. The method, then:
Antagonist activity of the compound against human ETB receptors expressed in transfected CHO cells was evaluated by measuring the effect of the compound on the changes in the cytoplasmic Ca^2+ ion signal induced by human ETB receptor agonists. The functional activity of the ETB receptor antagonistic effect was tested in Eurofins-Cerep SA according to current standard procedures.
1. Cells were suspended in DMEM buffer (Invitrogen) and then distributed in 384-well plate (100 μL/well) at a density of 3×10^4 cells/well;
2. Probenecid in HBSS buffer (Invitrogen) supplemented with 20 mM Hepes (Invitrogen) (pH 7.4) was mixed with fluorescent probe (Fluo4 NW, Invitrogen), the mixture was added to each wells, then balanced with cells at 37° C. for 60 minutes, and then balanced with cells at 22° C. for 15 minutes;
3. The test plate was placed in a microplate reader (CellLux, PerkinElmer), a DMSO solution or HBSS buffer with an appropriate concentration of the test compound and the positive control was added, and 0.3 nM endothelin-1 or HBSS buffer (base control) was added after 5 minutes, and then the change in fluorescence intensity proportional to the concentration of Ca^2+ ions of […] was measured;
4. Results were shown as the percent inhibition of control response to 0.3 nM endothelin-1;
5. Standard positive control was BQ-788, several concentrations were tested in each experiments. The data was analyzed using Prism to generate a concentration-response curve, and IC50 values of the compounds were calculated.

In a further series the target is T3, CYP1A2 (Homo sapiens, UniProt P05177).
T3 construct: Mixed human liver microsomes (HLM) were purchased from Corning Inc; tissue Corning Inc; host or cells: pooled human liver microsomes
T3 sequence (P05177 1-516): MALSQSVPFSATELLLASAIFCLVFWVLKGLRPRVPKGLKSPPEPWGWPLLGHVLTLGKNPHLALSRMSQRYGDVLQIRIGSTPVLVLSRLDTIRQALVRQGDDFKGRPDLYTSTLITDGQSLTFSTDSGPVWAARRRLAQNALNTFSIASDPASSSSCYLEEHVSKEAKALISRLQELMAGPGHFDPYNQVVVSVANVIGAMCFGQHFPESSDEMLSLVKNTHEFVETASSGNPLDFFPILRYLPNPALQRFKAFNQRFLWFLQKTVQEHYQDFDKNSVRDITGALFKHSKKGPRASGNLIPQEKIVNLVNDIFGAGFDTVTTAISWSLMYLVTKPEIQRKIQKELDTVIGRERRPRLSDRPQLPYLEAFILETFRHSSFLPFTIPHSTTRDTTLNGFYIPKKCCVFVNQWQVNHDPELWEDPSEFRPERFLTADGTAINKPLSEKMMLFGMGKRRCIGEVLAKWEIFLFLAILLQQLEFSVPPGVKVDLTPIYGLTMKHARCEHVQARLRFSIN
Kind of series: Human liver microsomal cytochrome P450 isozyme inhibition assay, CYP1A2. The format is in vitro ADME. Particulars: human liver microsomes. How it is done: (§1) Experimental Embodiment 4: Human Liver Microsomal Cytochrome P450 Isozyme Inhibition Assay The purpose of the assay was to evaluate the inhibitory activity of the samples against human liver microsomal cytochrome P450 isozyme (CYP1A2, CYP2C9, CYP2C19, CYP2D6 and CYP3A4) using the 5-in-1 probe substrate of the CYP isozyme. Mixed human liver microsomes (HLM) were purchased from Corning Inc. (Steuben, N.Y., USA) and stored below −80° C. before use. The test compound working solution which has been diluted into serial concentrations was added to an incubation system containing human liver microsomes, probe substrates and circulating system cofactors, and a control containing solvent without the test compound was used as the enzyme activity control (100%). The concentration of the metabolite produced by the probe substrate in the sample was determined using a liquid chromatography-tandem mass spectrometry (LC-MS/MS) method. Nonlinear regression analysis was performed on the average percent activity versus concentration of subjects using SigmaPlot (V.11). The IC50 value was calculated by a three-parameter or four-parameter inverse-logarithmic equation.
On the technique in general: Microsomes from liver hold many membrane-bound enzymes, among them those of drug oxidation.

Another series concerns the target T4, CYP2C9 (Homo sapiens, UniProt P11712).
T4 construct: Mixed human liver microsomes (HLM) were purchased from Corning Inc; tissue Corning Inc; host or cells: pooled human liver microsomes
Kind of series: Human liver microsomal cytochrome P450 isozyme inhibition assay, CYP2C9. The format is in vitro ADME. Particulars: human liver microsomes. The method, then:
as §1

Another series deals with T5, CYP2C19 (Homo sapiens, UniProt P33261).
T5 construct: Mixed human liver microsomes (HLM) were purchased from Corning Inc; tissue Corning Inc; host or cells: pooled human liver microsomes
T5 sequence (P33261 whole entry): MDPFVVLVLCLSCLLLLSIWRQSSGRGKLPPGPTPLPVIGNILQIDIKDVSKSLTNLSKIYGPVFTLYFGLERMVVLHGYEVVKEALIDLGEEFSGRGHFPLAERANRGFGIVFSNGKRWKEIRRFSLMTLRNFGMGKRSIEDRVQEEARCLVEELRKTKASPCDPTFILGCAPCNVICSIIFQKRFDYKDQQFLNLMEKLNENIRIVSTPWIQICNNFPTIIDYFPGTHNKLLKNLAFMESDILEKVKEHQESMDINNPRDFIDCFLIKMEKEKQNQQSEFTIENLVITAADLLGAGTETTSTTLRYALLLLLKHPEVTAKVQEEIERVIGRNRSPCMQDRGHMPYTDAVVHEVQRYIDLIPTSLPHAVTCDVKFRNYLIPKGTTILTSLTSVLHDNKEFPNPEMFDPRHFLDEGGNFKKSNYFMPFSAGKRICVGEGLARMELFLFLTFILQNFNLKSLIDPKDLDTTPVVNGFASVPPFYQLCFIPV
Briefly: Human liver microsomal cytochrome P450 isozyme inhibition assay, CYP2C19. The settings on record: human liver microsomes. In kind it is in vitro ADME. The method, then: as §1

For another series, the target named is T6, CYP2D6 (Homo sapiens, UniProt P10635).
T6 construct: Mixed human liver microsomes (HLM) were purchased from Corning Inc; tissue Corning Inc; host or cells: pooled human liver microsomes
T6 sequence (P10635 whole entry): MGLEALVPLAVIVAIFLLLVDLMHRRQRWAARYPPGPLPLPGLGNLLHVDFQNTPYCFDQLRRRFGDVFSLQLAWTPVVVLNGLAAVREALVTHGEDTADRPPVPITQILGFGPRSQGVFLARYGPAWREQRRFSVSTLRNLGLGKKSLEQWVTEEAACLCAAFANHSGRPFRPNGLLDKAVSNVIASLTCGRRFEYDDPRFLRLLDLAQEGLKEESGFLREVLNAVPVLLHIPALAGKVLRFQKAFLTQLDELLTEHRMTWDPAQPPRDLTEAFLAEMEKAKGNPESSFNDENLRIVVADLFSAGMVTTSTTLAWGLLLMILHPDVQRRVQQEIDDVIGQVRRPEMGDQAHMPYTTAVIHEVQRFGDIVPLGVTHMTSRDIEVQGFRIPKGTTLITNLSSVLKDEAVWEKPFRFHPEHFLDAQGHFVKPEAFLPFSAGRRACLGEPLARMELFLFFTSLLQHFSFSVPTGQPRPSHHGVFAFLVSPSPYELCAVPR
Kind of series: Human liver microsomal cytochrome P450 isozyme inhibition assay, CYP2D6. The format is in vitro ADME. The settings on record: human liver microsomes. The method, then: as §1

A further series deals with T7, CYP3A4 (Homo sapiens, UniProt P08684).
T7 construct: Mixed human liver microsomes (HLM) were purchased from Corning Inc; tissue Corning Inc; host or cells: pooled human liver microsomes
T7 sequence (P08684 whole entry): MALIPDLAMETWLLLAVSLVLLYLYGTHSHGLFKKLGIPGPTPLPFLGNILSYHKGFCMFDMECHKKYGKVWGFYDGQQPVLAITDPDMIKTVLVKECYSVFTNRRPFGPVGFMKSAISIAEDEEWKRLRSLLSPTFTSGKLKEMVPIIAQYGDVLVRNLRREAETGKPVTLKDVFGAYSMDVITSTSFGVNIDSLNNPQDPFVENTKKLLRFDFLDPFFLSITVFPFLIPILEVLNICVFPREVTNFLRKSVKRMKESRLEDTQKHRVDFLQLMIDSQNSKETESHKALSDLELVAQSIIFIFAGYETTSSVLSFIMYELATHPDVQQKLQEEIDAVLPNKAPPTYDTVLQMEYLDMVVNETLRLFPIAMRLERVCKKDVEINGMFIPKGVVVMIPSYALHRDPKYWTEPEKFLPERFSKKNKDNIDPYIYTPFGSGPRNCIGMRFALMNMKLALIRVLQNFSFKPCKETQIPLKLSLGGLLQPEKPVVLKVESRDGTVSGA
Kind of series: Human liver microsomal cytochrome P450 isozyme inhibition assay, CYP3A4. In kind it is in vitro ADME. The settings on record: human liver microsomes. How it is done: as §1

Series [1] concerns human liver microsomal cytochrome P450 isozyme (CYP1A2, CYP2C9, CYP2C19, CYP2D6 and CYP3A4). Kind of series: Human liver microsomal cytochrome P450 isozyme inhibition assay, summary over the main isozymes. The format is in vitro ADME. The method, then: as §1

T4 sequence (P11712 whole entry): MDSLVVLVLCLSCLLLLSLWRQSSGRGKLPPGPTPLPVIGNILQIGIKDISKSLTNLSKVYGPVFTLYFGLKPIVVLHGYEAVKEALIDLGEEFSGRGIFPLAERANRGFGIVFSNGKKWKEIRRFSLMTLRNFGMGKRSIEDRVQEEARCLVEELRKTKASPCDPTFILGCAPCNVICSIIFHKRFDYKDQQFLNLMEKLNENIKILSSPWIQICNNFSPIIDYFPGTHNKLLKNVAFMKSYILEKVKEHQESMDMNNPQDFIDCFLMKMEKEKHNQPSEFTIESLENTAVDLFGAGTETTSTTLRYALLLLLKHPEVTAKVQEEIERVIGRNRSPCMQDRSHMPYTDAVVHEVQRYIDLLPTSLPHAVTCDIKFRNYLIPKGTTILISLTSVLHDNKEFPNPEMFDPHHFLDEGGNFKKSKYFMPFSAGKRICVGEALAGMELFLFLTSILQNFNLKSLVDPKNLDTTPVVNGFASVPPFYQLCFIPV

As a reminder, the IC50 is the midpoint of a concentration-inhibition curve. Take `O=S(=O)(NCC1CC1)Nc1ncnc(OCCOc2ncc(Br)cn2)c1-c1ccc2scnc2c1` [WX005]: the concentration for half-maximal inhibition (IC50) was 0.0014 µM on human ETA receptor; 110 µM on human ETB receptor; over 50 µM at CYP1A2; over 50 µM against CYP2C9; over 50 µM against CYP2C19; over 50 µM on CYP2D6. For the same compound, on CYP3A4, the IC50 was over 50 µM. In addition, the ETA/ETB selectivity on human ETA receptor amounted to 78500. In addition, the “inhibitory effects on five main isozymes of CYP (in words)” value in series [1] is recorded as “very weak”.
On to `CCCNS(=O)(=O)Nc1ncnc(OCCOc2ncc(Br)cn2)c1-c1ccc2ccnn2c1` [WX025], for which the IC50 against human ETA receptor was 0.0031 µM; against human ETB receptor it was 61 µM; against CYP1A2 it was over 50 µM; on CYP2C9, 35 µM; against CYP2C19, over 50 µM; against CYP2D6, over 50 µM. On CYP3A4, this compound came in with a half-inhibitory concentration (IC50) of over 50 µM. In addition, the ETA/ETB selectivity at human ETA receptor is 19600. The “inhibitory effects on five main isozymes of CYP (in words)” value in series [1] is “very weak”.
`COCCNS(=O)(=O)Nc1ncnc(OCCOc2ncc(Br)cn2)c1-c1ccc2c(c1)CCO2` [WX034]: on human ETA receptor, the half-maximal inhibitory concentration (IC50) amounted to 0.0036 µM and the ETA/ETB selectivity worked out at 55500. This compound also came in with an IC50 against human ETB receptor of 200 µM.
